{
  "source": "PubChem BioAssay AID1963853",
  "about": "(Molecular Pharmacology Branch, DTP, NCI, 2024)",
  "test_system": "266295-075-R-J1-PDC spheroid viability",
  "test": "Anticancer human tumor 266295-075-R-J1-PDC patient-derived head and neck squamous carcinoma cell line growth inhibition [POLQ]",
  "conditions": "spheroids with HUVEC and MSC; for IC50: curve of first compound; for viability, T/C: stronger effect = lower value",
  "outline": "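Three-cell-type spheroids modelling solid tumor plus stroma served as the readout system; POL inhibitors were tested individually and in combination, concentration ranges set by clinical Cmax where known.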",
  "data": [
    {"molecule": "CCc1c2c(nc3ccc(O)cc13)-c1cc3c(c(=O)n1C2)COC(=O)[C@]3(O)CC", "note": "+ COC1C(OC(N)=O)C(O)C(Oc2ccc3c(O)c(NC(=O)c4ccc(O)c(CC=C(C)C)c4)c(=O)oc3c2C)OC1(C)C;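 also: spheroids exposed to compounds for seven days before readout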", "values": [
      {"measurement": "IC50", "setting": "second compound 0.0316 µM", "result": "> 1000", "unit": "nM"},
      {"measurement": "IC50", "setting": "second compound 0.1 µM", "result": "> 1000", "unit": "nM"},
      {"measurement": "IC50", "setting": "second compound 0.316 µM", "result": "> 1000", "unit": "nM"},
      {"measurement": "IC50", "setting": "second compound 1 µM", "result": "> 1000", "unit": "nM"},
      {"measurement": "IC50", "setting": "second compound 3.16 µM", "result": "> 1000", "unit": "nM"},
      {"measurement": "IC50", "setting": "second compound 10 µM", "result": "> 1000", "unit": "nM"},
      {"measurement": "viability, T/C", "setting": "second compound 0.0316 µM, first compound 0.00316 µM", "result": 91, "unit": "%"},
      {"measurement": "viability, T/C", "setting": "second compound 0.0316 µM, first compound 0.01 µM", "result": 109, "unit": "%"},
      {"measurement": "viability, T/C", "setting": "second compound 0.0316 µM, first compound 0.0316 µM", "result": 89.8, "unit": "%"},
      {"measurement": "viability, T/C", "setting": "second compound 0.0316 µM, first compound 0.1 µM", "result": 105, "unit": "%"},
      {"measurement": "viability, T/C", "setting": "second compound 0.0316 µM, first compound 0.316 µM", "result": 96.7, "unit": "%"},
      {"measurement": "viability, T/C", "setting": "second compound 0.0316 µM, first compound 1 µM", "result": 70.2, "unit": "%"},
      {"measurement": "viability, T/C", "setting": "second compound 0.1 µM, first compound 0.00316 µM", "result": 90.1, "unit": "%"},
      {"measurement": "viability, T/C", "setting": "second compound 0.1 µM, first compound 0.01 µM", "result": 99.2, "unit": "%"},
      {"measurement": "viability, T/C", "setting": "second compound 0.1 µM, first compound 0.0316 µM", "result": 86.6, "unit": "%"},
      {"measurement": "viability, T/C", "setting": "second compound 0.1 µM, first compound 0.1 µM", "result": 103, "unit": "%"},
      {"measurement": "viability, T/C", "setting": "second compound 0.1 µM, first compound 0.316 µM", "result": 108, "unit": "%"},
      {"measurement": "viability, T/C", "setting": "second compound 0.1 µM, first compound 1 µM", "result": 79.3, "unit": "%"},
      {"measurement": "viability, T/C", "setting": "second compound 0.316 µM, first compound 0.00316 µM", "result": 99.7, "unit": "%"},
      {"measurement": "viability, T/C", "setting": "second compound 0.316 µM, first compound 0.01 µM", "result": 82.9, "unit": "%"},
      {"measurement": "viability, T/C", "setting": "second compound 0.316 µM, first compound 0.0316 µM", "result": 85.6, "unit": "%"},
      {"measurement": "viability, T/C", "setting": "second compound 0.316 µM, first compound 0.1 µM", "result": 109, "unit": "%"},
      {"measurement": "viability, T/C", "setting": "second compound 0.316 µM, first compound 0.316 µM", "result": 100, "unit": "%"},
      {"measurement": "viability, T/C", "setting": "second compound 0.316 µM, first compound 1 µM", "result": 69.7, "unit": "%"},
      {"measurement": "viability, T/C", "setting": "second compound 1 µM, first compound 0.00316 µM", "result": 93.5, "unit": "%"},
      {"measurement": "viability, T/C", "setting": "second compound 1 µM, first compound 0.01 µM", "result": 79.2, "unit": "%"},
      {"measurement": "viability, T/C", "setting": "second compound 1 µM, first compound 0.0316 µM", "result": 91.1, "unit": "%"},
      {"measurement": "viability, T/C", "setting": "second compound 1 µM, first compound 0.1 µM", "result": 94.5, "unit": "%"},
      {"measurement": "viability, T/C", "setting": "second compound 1 µM, first compound 0.316 µM", "result": 99.5, "unit": "%"},
      {"measurement": "viability, T/C", "setting": "second compound 1 µM, first compound 1 µM", "result": 69.9, "unit": "%"},
      {"measurement": "viability, T/C", "setting": "second compound 3.16 µM, first compound 0.00316 µM", "result": 84.4, "unit": "%"},
      {"measurement": "viability, T/C", "setting": "second compound 3.16 µM, first compound 0.01 µM", "result": 90.6, "unit": "%"},
      {"measurement": "viability, T/C", "setting": "second compound 3.16 µM, first compound 0.0316 µM", "result": 97.9, "unit": "%"},
      {"measurement": "viability, T/C", "setting": "second compound 3.16 µM, first compound 0.1 µM", "result": 104, "unit": "%"},
      {"measurement": "viability, T/C", "setting": "second compound 3.16 µM, first compound 0.316 µM", "result": 96.8, "unit": "%"},
      {"measurement": "viability, T/C", "setting": "second compound 3.16 µM, first compound 1 µM", "result": 65.5, "unit": "%"},
      {"measurement": "viability, T/C", "setting": "second compound 10 µM, first compound 0.00316 µM", "result": 89.5, "unit": "%"},
      {"measurement": "viability, T/C", "setting": "second compound 10 µM, first compound 0.01 µM", "result": 89, "unit": "%"},
      {"measurement": "viability, T/C", "setting": "second compound 10 µM, first compound 0.0316 µM", "result": 107, "unit": "%"},
      {"measurement": "viability, T/C", "setting": "second compound 10 µM, first compound 0.1 µM", "result": 112, "unit": "%"},
      {"measurement": "viability, T/C", "setting": "second compound 10 µM, first compound 0.316 µM", "result": 106, "unit": "%"},
      {"measurement": "viability, T/C", "setting": "second compound 10 µM, first compound 1 µM", "result": 55.4, "unit": "%"}
    ]}
  ]
}
